Assays:
Format in all cases: biochemical
[1] = target: T1, human p70S6 kinase (p70S6K, kinase domain residues 1-421, T412E mutation) (Homo sapiens, UniProt P23443, T412E); assay: p70S6 kinase assay, Luciferase-Coupled Chemiluminescent Kinase assay (LCCA); conditions: 5 μM ATP, 12 nM p70S6K; read-out: p70S6K inhibition IC50
T1 construct: human p70S6 kinase domainresidues 1-421, containing a T412E mutation; made in house
Outline: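 Baculovirus-expressed kinase domain (12 nM) reacted 2 h at ambient temperature with 5 μM ATP and 5 μM RRRLSSLRA peptide. Buffer was Tris pH 7.5 with MgCl2, MnCl2, DTT and Triton X-100. Remaining ATP was read by luciferase-luciferin chemiluminescence. IC50 came from 10-point dose-response with a four-parameter Hill fit.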

[2] = target: T2, human Akt1 kinase (kinase domain residues R144-A480, activated with PDK1) (Homo sapiens, UniProt P31749); assay: Akt1 kinase assay, Luciferase-Coupled Chemiluminescent Kinase assay (LCCA); conditions: 1 μM ATP, 1.3 nM Akt1; read-out: Akt-1 inhibition IC50
T2 construct: made in house
T2 sequence (P31749 144-480): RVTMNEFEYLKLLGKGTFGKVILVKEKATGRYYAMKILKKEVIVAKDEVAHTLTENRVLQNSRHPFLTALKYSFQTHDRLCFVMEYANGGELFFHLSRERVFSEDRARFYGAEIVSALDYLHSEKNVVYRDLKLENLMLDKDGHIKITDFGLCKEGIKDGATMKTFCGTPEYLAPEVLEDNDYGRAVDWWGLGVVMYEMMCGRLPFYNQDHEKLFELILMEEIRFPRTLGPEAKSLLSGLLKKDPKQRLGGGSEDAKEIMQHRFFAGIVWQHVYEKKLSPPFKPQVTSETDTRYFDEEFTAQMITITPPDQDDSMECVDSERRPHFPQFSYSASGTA
Outline: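 Baculovirus-expressed PDK1-activated Akt1 kinase domain (R144-A480), 1.3 nM, with 5 μM crosstide and 1 μM ATP in Tris pH 7.5 with MgCl2/MnCl2, 3 h at ambient temperature. Remaining ATP read by luciferase-luciferin chemiluminescence; 10-point IC50 from four-parameter fit.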

[3] = target: T3, human Akt2 kinase (kinase domain residues K146-R480) (Homo sapiens, UniProt P31751); assay: Akt2 kinase assay, Luciferase-Coupled Chemiluminescent Kinase assay (LCCA); conditions: 2 μM ATP, 10 nM Akt2; read-out: Akt-2 inhibition IC50
T3 construct: human Akt2 kinase domain residues K146-R480; made in house
T3 sequence (P31751 146-480): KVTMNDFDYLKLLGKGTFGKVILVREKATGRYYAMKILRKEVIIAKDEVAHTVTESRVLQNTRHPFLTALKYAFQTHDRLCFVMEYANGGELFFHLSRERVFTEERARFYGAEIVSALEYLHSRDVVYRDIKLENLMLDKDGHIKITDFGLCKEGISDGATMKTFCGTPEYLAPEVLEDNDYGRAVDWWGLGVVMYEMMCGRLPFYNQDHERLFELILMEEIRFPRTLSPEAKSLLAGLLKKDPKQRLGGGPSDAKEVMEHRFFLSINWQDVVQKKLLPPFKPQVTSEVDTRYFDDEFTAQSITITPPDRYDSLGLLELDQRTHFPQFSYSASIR
Method: Kinase activity and compound inhibition are investigated using one or more of the three assay formats described below. The ATP concentrations for each assay are selected to be close to the Michaelis-Menten constant (KM) for each individual kinase. Dose-response experiments are performed at 10 different inhibitor concentrations in a 384-well plate format. The data are fitted to four-parameter equation (2) below; where Y is the observed signal, X is the inhibitor concentration, Min is the background signal in the absence of enzyme (0% enzyme activity), Max is the signal in the absence of inhibitor (100% enzyme activity), IC50 is the inhibitor concentration at 50% enzyme inhibition and H represents the empirical Hill's slope to measure the cooperativity. Typically H is close to unity. Y=Min+(Max−Min)/(1+(X/IC50)^H) Equation (2) p70S6 Kinase Assay
Biochemical activity of Akt2 kinase was assessed using a Luciferase-Coupled Chemiluminescent Kinase assay (LCCA) format. Kinase activity was measured as the percent ATP remaining following the kinase reaction. Remaining ATP was detected by luciferase-luciferin-coupled chemiluminescence. Specifically, the reaction was initiated by mixing test compounds, 2 μM ATP, 5 μM crosstide peptide and 10 nM Akt2 (baculovirus expressed human Akt2 kinase domain residues K146-R480) in a 20 uL assay buffer (20 mM Tris-HCL pH 7.5, 10 mM MgCl2, 0.03% Triton X-100, 1 mM DTT, 3 mM MnCl2). The mixture is incubated at ambient temperature for 2 hours after which 20 μL luciferase-luciferin mix is added and the chemiluminescent signal read using a Wallac Victor2 reader. The luciferase-luciferin mix consists of 50 mM HEPES, pH 7.8, 8.5 μg/mL oxalic acid (pH 7.8), 5 (or 50) mM DTT, 0.4% Triton X-100, 0.25 mg/mL coenzyme A, 63 uM AMP, 28 μg/mL luciferin and 40,000 units/mL luciferase.

T1 sequence (P23443 1-421 T412E): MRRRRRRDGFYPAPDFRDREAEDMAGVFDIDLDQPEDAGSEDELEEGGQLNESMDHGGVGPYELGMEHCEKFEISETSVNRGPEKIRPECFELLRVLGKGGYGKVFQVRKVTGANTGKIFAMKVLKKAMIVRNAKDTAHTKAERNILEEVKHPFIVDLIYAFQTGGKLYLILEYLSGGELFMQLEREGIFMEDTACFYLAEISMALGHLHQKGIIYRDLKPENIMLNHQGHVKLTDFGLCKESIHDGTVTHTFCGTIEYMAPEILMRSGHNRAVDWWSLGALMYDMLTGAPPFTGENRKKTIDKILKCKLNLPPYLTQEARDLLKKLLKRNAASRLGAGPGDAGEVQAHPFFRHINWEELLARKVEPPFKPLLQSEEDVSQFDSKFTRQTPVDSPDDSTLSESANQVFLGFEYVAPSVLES

SMILES	IC50 [1]	IC50 [2]	IC50 [3]
COc1cc(OC)nc(C(c2ccccc2)N2CCN(c3ncnc4[nH]nc(Br)c34)CC2)n1 (stereo not drawn) [Entry 77, 4-{4-[[4,6-bis(methyloxy)pyrimidin-2-yl](phenyl)methyl]piperazin-1-yl}-3-bromo-1H-pyrazolo[3,4-d]pyrimidine]	> 2000 nM	> 2000 nM	> 2000 nM
Brc1n[nH]c2ncnc(N3CCN(CCCN4CCCC4)CC3)c12 [Entry 69, 3-bromo-4-[4-(3-pyrrolidin-1-ylpropyl)piperazin-1-yl]-1H-pyrazolo[3,4-d]pyrimidine]	500 to 2000 nM	> 2000 nM	> 2000 nM
Brc1n[nH]c2ncnc(N3CCN(Cc4ccc5c(c4)OCCO5)CC3)c12 [Entry 36, 3-bromo-4-[4-(2,3-dihydro-1,4-benzodioxin-6-ylmethyl)piperazin-1-yl]-1H-pyrazolo[3,4-d]pyrimidine]	< 50 nM	> 2000 nM	> 2000 nM
CC(C)(C)c1ccc(CN2CCN(c3ncnc4[nH]nc(Br)c34)CC2)cc1 [Entry 7, 3-bromo-4-(4-{[4-(1,1-dimethylethyl)phenyl]methyl}piperazin-1-yl)-1H-pyrazolo[3,4-d]pyrimidine]	< 50 nM	> 2000 nM	> 2000 nM
Brc1n[nH]c2ncnc(N3CCN(C4CCCCc5ccccc54)CC3)c12 (stereo not drawn) [Entry 78, 3-bromo-4-[4-(6,7,8,9-tetrahydro-5H-benzocyclohepten-5-yl)piperazin-1-yl]-1H-pyrazolo[3,4-d]pyrimidine]	> 2000 nM	> 2000 nM	> 2000 nM
Brc1n[nH]c2ncnc(N3CCN(Cc4ccccc4)CC3)c12 [Entry 50, 3-bromo-4-[4-(phenylmethyl)piperazin-1-yl]-1H-pyrazolo[3,4-d]pyrimidine]	50 to 500 nM	> 2000 nM	> 2000 nM
Brc1n[nH]c2ncnc(N3CCN(Cc4ccc(Oc5ccccc5)cc4)CC3)c12 [Entry 39, 3-bromo-4-(4-{[4-(phenyloxy)phenyl]methyl}piperazin-1-yl)-1H-pyrazolo[3,4-d]pyrimidine]	< 50 nM	> 2000 nM	> 2000 nM
O=C(c1ccc(Cl)cc1)C1CCN(c2ncnc3[nH]nc(Br)c23)CC1 [Entry 38, [1-(3-bromo-1H-pyrazolo[3,4-d]pyrimidin-4-yl)piperidin-4-yl](4-chlorophenyl)methanone]	< 50 nM	500 to 2000 nM	> 2000 nM
Brc1n[nH]c2ncnc(N3CCN(Cc4cccc(Oc5ccccc5)c4)CC3)c12 [Entry 53, 3-bromo-4-(4-{[3-(phenyloxy)phenyl]methyl}piperazin-1-yl)-1H-pyrazolo[3,4-d]pyrimidine]	50 to 500 nM	> 2000 nM	> 2000 nM
Brc1n[nH]c2ncnc(N3CCN(Cc4cccc(OCc5ccccc5)c4)CC3)c12 [Entry 62, 3-bromo-4-[4-({3-[(phenylmethyl)oxy]phenyl}methyl)piperazin-1-yl]-1H-pyrazolo[3,4-d]pyrimidine]	50 to 500 nM	> 2000 nM	> 2000 nM
COCCCN1CCN(c2ncnc3[nH]nc(Br)c23)CC1 [Entry 76, 3-bromo-4-{4-[3-(methyloxy)propyl]piperazin-1-yl}-1H-pyrazolo[3,4-d]pyrimidine]	> 2000 nM	> 2000 nM	> 2000 nM
Brc1n[nH]c2ncnc(N3CCN(Cc4ccc(-c5ccccc5)cc4)CC3)c12 [Entry 30, 4-[4-(biphenyl-4-ylmethyl)piperazin-1-yl]-3-bromo-1H-pyrazolo[3,4-d]pyrimidine]	< 50 nM	> 2000 nM	> 2000 nM
Brc1n[nH]c2ncnc(N3CCN(Cc4ccc(OCc5ccccc5)cc4)CC3)c12 [Entry 79, 3-bromo-4-[4-({4-[(phenylmethyl)oxy]phenyl}methyl)piperazin-1-yl]-1H-pyrazolo[3,4-d]pyrimidine]	> 2000 nM	> 2000 nM	> 2000 nM
C[C@H]1CN(c2ncnc3[nH]nc(Br)c23)CCN1Cc1ccc(Cl)cc1 [Entry 31, 3-bromo-4-{(3S)-4-[(4-chlorophenyl)methyl]-3-methylpiperazin-1-yl}-1H-pyrazolo[3,4-d]pyrimidine]	< 50 nM	500 to 2000 nM	> 2000 nM
Brc1n[nH]c2ncnc(N3CCN(CC4CCCCC4)CC3)c12 [Entry 70, 3-bromo-4-[4-(cyclohexylmethyl)piperazin-1-yl]-1H-pyrazolo[3,4-d]pyrimidine]	500 to 2000 nM	> 2000 nM	> 2000 nM

Second part, the compound after the results:

IC50 [1]	IC50 [2]	IC50 [3]	SMILES
< 50 nM	> 2000 nM	> 2000 nM	CN(C)c1ccc(CN2CCN(c3ncnc4[nH]nc(Br)c34)CC2)cc1 [Entry 41, 4-{[4-(3-bromo-1H-pyrazolo[3,4-d]pyrimidin-4-yl)piperazin-1-yl]methyl}-N,N-dimethylaniline]
< 50 nM	> 2000 nM	> 2000 nM	O=C(Nc1cccc(C(F)(F)F)c1)N1CCN(c2ncnc3[nH]nc(Br)c23)CC1 [Entry 33, 4-(3-bromo-1H-pyrazolo[3,4-d]pyrimidin-4-yl)-N-[3-(trifluoromethyl)phenyl]piperazine-1-carboxamide]
< 50 nM	> 2000 nM	> 2000 nM	O=C(/C=C/c1ccccc1)N1CCN(c2ncnc3[nH]nc(Br)c23)CC1 [Entry 43, 3-bromo-4-{4-[(2E)-3-phenylprop-2-enoyl]piperazin-1-yl}-1H-pyrazolo[3,4-d]pyrimidine]
500 to 2000 nM	> 2000 nM	> 2000 nM	COCCN1CCN(c2ncnc3[nH]nc(Br)c23)CC1 [Entry 74, 3-bromo-4-{4-[2-(methyloxy)ethyl]piperazin-1-yl}-1H-pyrazolo[3,4-d]pyrimidine]
< 50 nM	500 to 2000 nM	> 2000 nM	Brc1n[nH]c2ncnc(N3CCN(Cc4ccc5c(c4)OCO5)CC3)c12 [Entry 37, 4-[4-(1,3-benzodioxol-5-ylmethyl)piperazin-1-yl]-3-bromo-1H-pyrazolo[3,4-d]pyrimidine]
500 to 2000 nM	> 2000 nM	> 2000 nM	O=C(c1ccco1)N1CCN(c2ncnc3[nH]nc(Br)c23)CC1 [Entry 66, 3-bromo-4-[4-(furan-2-ylcarbonyl)piperazin-1-yl]-1H-pyrazolo[3,4-d]pyrimidine]
< 50 nM	500 to 2000 nM	> 2000 nM	Clc1ccc(CN2CCN(c3ncnc4[nH]nc(Br)c34)CC2)c(Cl)c1 [Entry 47, 3-bromo-4-{4-[(2,4-dichlorophenyl)methyl]piperazin-1-yl}-1H-pyrazolo[3,4-d]pyrimidine]
< 50 nM	500 to 2000 nM	> 2000 nM	Fc1ccc(CN2CCN(c3ncnc4[nH]nc(Br)c34)CC2)cc1 [Entry 34, 3-bromo-4-{4-[(4-fluorophenyl)methyl]piperazin-1-yl}-1H-pyrazolo[3,4-d]pyrimidine]
50 to 500 nM	> 2000 nM	> 2000 nM	Fc1cccc(Cl)c1CN1CCN(c2ncnc3[nH]nc(Br)c23)CC1 [Entry 56, 3-bromo-4-{4-[(2-chloro-6-fluorophenyl)methyl]piperazin-1-yl}-1H-pyrazolo[3,4-d]pyrimidine]
50 to 500 nM	> 2000 nM	> 2000 nM	N#Cc1cccc(CN2CCN(c3ncnc4[nH]nc(Br)c34)CC2)c1 [Entry 55, 3-{[4-(3-bromo-1H-pyrazolo[3,4-d]pyrimidin-4-yl)piperazin-1-yl]methyl}benzonitrile]
50 to 500 nM	> 2000 nM	> 2000 nM	CC(c1ccccc1)N1CCN(c2ncnc3[nH]nc(Br)c23)CC1 (stereo not drawn) [Entry 57, 3-bromo-4-[4-(1-phenylethyl)piperazin-1-yl]-1H-pyrazolo[3,4-d]pyrimidine]
50 to 500 nM	> 2000 nM	> 2000 nM	O=C(CN1CCN(c2ncnc3[nH]nc(Br)c23)CC1)Nc1ccccn1 [Entry 51, 2-[4-(3-bromo-1H-pyrazolo[3,4-d]pyrimidin-4-yl)piperazin-1-yl]-N-pyridin-2-ylacetamide]

— US7994172B2, “[1H-pyrazolo[3, 4-D]pyrimidin-4-yl]-piperidine or -piperazine compounds as serine-theoronine kinase modulators (P70s6k, Atk1 and Atk2) for the treatment of immunological, inflammatory and proliferative diseases” (Exelixis, Inc., priority 2004, dated 2011)
